Values quoted from earlier work, collected in patent publication US20110144207A1, “ARYL ALKYL CARBOXYLIC ACID SALTS, PROCESS FOR PREPARATION AND DOSAGE FORMS” (SHASUN CHEMICALS AND DRUGS LIMITED, priority 2008, published 2011).
Counter-ions that a name gives are not always drawn. Like-named read-outs stand apart in the source and are kept apart here.

Assays:
[1] = as described in EP application 1149828
[2] = compared with conventional ibuprofen

O=C(O)Cc1ccccc1Nc1c(Cl)cccc1Cl [diclofenac sodium salt]
hygroscopic property ([1]; sodium salt): hygroscopic

CC(C)Cc1ccc(C(C)C(=O)O)cc1.O.O.[Na] (stereo not shown) [ibuprofen sodium dihydrate, Ibuprofen Sodium Dihydrate]
Cmax (peak concentration) [2]: significantly higher | tmax (time to peak concentration) [2]: earlier

O=C(O)Cc1ccccc1Nc1c(Cl)cccc1Cl [diclofenac sodium salt hemihydrate]
hygroscopic property ([1]; sodium salt hemihydrate): no hygroscopic property
